Measurements: article PMC6271228, “Diethyl 2-(Phenylcarbamoyl)phenyl Phosphorothioates: Synthesis, Antimycobacterial Activity and Cholinesterase Inhibition” (Molecules, 2014)
≈ marks a conversion by molar mass, not a printed value. Read-outs that look alike come from different tables or passages of the source.

Legend:
[1] = test system: Mycobacterium tuberculosis My 331/88 (H37Rv); assay: microbe, parasite or virus in culture; type: cell-based
[2] = test system: M. avium My 330/88; assay: microbe, parasite or virus in culture; type: cell-based, Mycobacterium avium; conditions: for MIC: Mycobacterium avium, 37 °C
[3] = test system: M. kansasii My 235/80; assay: microbe, parasite or virus in culture; type: cell-based, Mycobacterium kansasii; conditions: for MIC: Mycobacterium kansasii, 37 °C; for MICs for M. kansasii 235/80: all time points
[4] = test system: M. kansasii 6509/96 (clinically isolated); assay: microbe, parasite or virus in culture; type: cell-based; conditions: Mycobacterium kansasii, 37 °C
[5] = target: T1, AChE from electric eel (Electrophorus electricus, UniProt O42275); assay: AChE inhibition, modified Ellman's method; type: biochemical, Electrophorus electricus L.
T1 construct: Acetylcholinesterase was obtained from electric eel (Electrophorus electricus L.); from tissue; host or cells: electric eel (Electrophorus electricus L.)
From the text: (§1) The ability of the tested compounds to inhibit AChE from electric eel (Electrophorus electricus L.) and BChE from equine serum was screened in vitro using modified Ellman’s method for the evaluation of cholinesterase activity. […] […]. These two standards were chosen due to their different structures. […]. The choice of these drugs with different mechanism of action can provide relevant results. All tested compounds expressed a good inhibitory activity with IC50s in low micromolar values.
(§2) The IC50 values were determined using the spectrophotometric Ellman’s method, which is a simple, rapid and direct method to determine the SH and -S-S- group content in proteins. This method is widely used for cholinesterase activity evaluation and screening of the efficiency of cholinesterase inhibitors. Cholinesterase activity is measured indirectly by quantifying the concentration of 5-thio-2-nitrobenzoic acid (TNB) ion formed in the reaction between the thiol reagent 5,5'-dithiobis-2-nitrobenzoic acid (DTNB) and thiocholine, a product of substrate hydrolysis by cholinesterase (i.e., acetylthiocholine, ATCh). All the tested compounds were dissolved in dimethyl sulfoxide (concentration 0.01 M) and then diluted in demineralised water (concentration 0.001 M and 0.0001 M). The Ellman’s method is slightly modified according to Zdrazilova et al.. Acetylcholinesterase was obtained from electric eel (Electrophorus electricus L.) and butyrylcholinesterase from equine serum.

[6] = target: T2, BChE from equine serum (Equus caballus, UniProt P81908); assay: BChE inhibition, modified Ellman's method; type: biochemical
T2 construct: butyrylcholinesterase from equine serum; from tissue; host or cells: equine serum
From the text: as §1, §2

[7] = 336 h, 14 d, 37 °C, read-out: MIC Mtb 331/88 (H37Rv) 14 d
[8] = 504 h, 21 d, 37 °C, read-out: MIC Mtb 331/88 (H37Rv) 21 d
[9] = MY330/88, 336 h, 14 d, read-out: MIC M. avium 330/88 14 d
[10] = MY330/88, 504 h, 21 d, read-out: MIC M. avium 330/88 21 d
[11] = MY235/80, 168 h, 7 d, read-out: MIC M. kansasii 235/80 7 d
[12] = MY235/80, 336 h, 14 d, read-out: MIC M. kansasii 235/80 14 d
[13] = MY235/80, 504 h, 21 d, read-out: MIC M. kansasii 235/80 21 d
[14] = 168 h, 7 d, read-out: MIC M. kansasii 6509/96 7 d
[15] = 336 h, 14 d, read-out: MIC M. kansasii 6509/96 14 d
[16] = 504 h, 21 d, read-out: MIC M. kansasii 6509/96 21 d

T1 sequence (O42275 24-633): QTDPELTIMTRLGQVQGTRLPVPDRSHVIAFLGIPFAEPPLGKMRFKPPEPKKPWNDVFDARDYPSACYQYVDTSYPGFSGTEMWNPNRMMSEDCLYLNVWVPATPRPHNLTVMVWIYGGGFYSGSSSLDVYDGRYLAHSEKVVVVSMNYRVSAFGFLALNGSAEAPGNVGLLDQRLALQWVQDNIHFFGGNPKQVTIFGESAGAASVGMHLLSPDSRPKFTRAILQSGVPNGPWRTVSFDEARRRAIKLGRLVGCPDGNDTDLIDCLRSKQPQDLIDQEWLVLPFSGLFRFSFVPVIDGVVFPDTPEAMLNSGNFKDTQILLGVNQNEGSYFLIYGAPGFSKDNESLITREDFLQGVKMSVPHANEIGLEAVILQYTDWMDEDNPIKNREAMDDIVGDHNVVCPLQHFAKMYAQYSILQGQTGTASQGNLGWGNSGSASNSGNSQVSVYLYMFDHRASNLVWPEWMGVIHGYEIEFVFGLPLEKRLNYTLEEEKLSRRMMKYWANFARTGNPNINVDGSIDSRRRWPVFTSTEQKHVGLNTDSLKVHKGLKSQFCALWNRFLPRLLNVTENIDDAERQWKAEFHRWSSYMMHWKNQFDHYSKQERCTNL
T2 sequence (P81908 whole entry): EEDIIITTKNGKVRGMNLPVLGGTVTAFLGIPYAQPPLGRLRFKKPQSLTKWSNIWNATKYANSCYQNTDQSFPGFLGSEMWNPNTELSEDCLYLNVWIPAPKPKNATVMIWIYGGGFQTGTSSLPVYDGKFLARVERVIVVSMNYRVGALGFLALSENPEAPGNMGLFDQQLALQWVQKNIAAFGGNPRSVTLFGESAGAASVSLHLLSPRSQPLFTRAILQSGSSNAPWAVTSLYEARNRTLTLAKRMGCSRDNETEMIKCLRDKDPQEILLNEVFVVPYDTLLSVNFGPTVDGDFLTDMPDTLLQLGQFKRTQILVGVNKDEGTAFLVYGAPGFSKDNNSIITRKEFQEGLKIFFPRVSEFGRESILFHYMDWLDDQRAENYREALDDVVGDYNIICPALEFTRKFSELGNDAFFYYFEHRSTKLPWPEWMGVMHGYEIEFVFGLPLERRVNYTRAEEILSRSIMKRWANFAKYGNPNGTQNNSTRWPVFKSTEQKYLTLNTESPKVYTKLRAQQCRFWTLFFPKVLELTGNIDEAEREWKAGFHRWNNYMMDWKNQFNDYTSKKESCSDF

Row | Compound | MIC [1, 7] [µM] | MIC [1, 8] [µM] | MIC ([1]; read-out: MIC against Mtb) [µM] | MIC [2, 9] [µM] | MIC [2, 10] [µM] | MIC values against M. avium ([2]; all MIC values (14 and 21 d)) [µM] | MIC [3, 11] [µM] | MIC [3, 12] [µM] | MIC [3, 13] [µM] | MICs for M. kansasii 235/80 [3] [µM] | MIC [4, 14] [µM] | MIC [4, 15] [µM] | MIC [4, 16] [µM] | IC50 [5] [µM] | IC50 [6] [µM]
1 | CCOP(=S)(OCC)Oc1ccc(Br)cc1C(=O)Nc1ccc(C(F)(F)F)cc1 [1i, O-(4-Bromo-2-{[4-(trifluoromethyl)phenyl]carbamoyl}phenyl) O,O-diethyl phosphorothioate] | 8 (≈ 4.1 µg/mL) | 8 (≈ 4.1 µg/mL) | 8 (≈ 4.1 µg/mL) | 125 (≈ 64 µg/mL) | 125 (≈ 64 µg/mL) | ≤ 250 | 32 (≈ 16.4 µg/mL) | 62.5 (≈ 32 µg/mL) | 125 (≈ 64 µg/mL) | ≤ 250 | 32 (≈ 16.4 µg/mL) | 62.5 (≈ 32 µg/mL) | 125 (≈ 64 µg/mL) | 11.2 ± 0.02 | 20.2 ± 1.6
2 | CCOP(=S)(OCC)Oc1ccc(Cl)cc1C(=O)Nc1cccc(Cl)c1 [1j, O-{4-Chloro-2-[(3-chlorophenyl)carbamoyl]phenyl} O,O-diethyl phosphorothioate] | 32 (≈ 13.9 µg/mL) | 62.5 (≈ 27.1 µg/mL) |  | > 500 | > 500 |  | 250 (≈ 109 µg/mL) | 250 (≈ 109 µg/mL) | 500 (≈ 217 µg/mL) |  | 250 (≈ 109 µg/mL) | 500 (≈ 217 µg/mL) | 500 (≈ 217 µg/mL) | 9.97 ± 0.24 | 14.8 ± 0.15
3 | CCOP(=S)(OCC)Oc1ccc(Cl)cc1C(=O)Nc1ccc(Cl)cc1 [1k, O-{4-Chloro-2-[(4-chlorophenyl)carbamoyl]phenyl} O,O-diethyl phosphorothioate] | 32 (≈ 13.9 µg/mL) | 32 (≈ 13.9 µg/mL) |  | 500 (≈ 217 µg/mL) | 500 (≈ 217 µg/mL) |  | 32 (≈ 13.9 µg/mL) | 62.5 (≈ 27.1 µg/mL) | 62.5 (≈ 27.1 µg/mL) | ≤ 250 | 62.5 (≈ 27.1 µg/mL) | 125 (≈ 54.3 µg/mL) | 125 (≈ 54.3 µg/mL) | 9.78 ± 0.11 | 12.7 ± 0.1
4 | CCOP(=S)(OCC)Oc1ccc(Cl)cc1C(=O)Nc1ccc(Cl)c(Cl)c1 [1l, O-{4-Chloro-2-[(3,4-dichlorophenyl)carbamoyl]phenyl} O,O-diethyl phosphorothioate] | 8 (≈ 3.75 µg/mL) | 8 (≈ 3.75 µg/mL) | 8 (≈ 3.75 µg/mL) | > 500 | > 500 |  | 125 (≈ 58.6 µg/mL) | 250 (≈ 117 µg/mL) | 500 (≈ 234 µg/mL) |  | 125 (≈ 58.6 µg/mL) | 250 (≈ 117 µg/mL) | 250 (≈ 117 µg/mL) | 9.33 ± 0.11 | 17.4 ± 0.5
5 | CCOP(=S)(OCC)Oc1ccc(Cl)cc1C(=O)Nc1cccc(Br)c1 [1m, O-{2-[(3-Bromophenyl)carbamoyl]-4-chlorophenyl} O,O-diethyl phosphorothioate] | 16 (≈ 7.66 µg/mL) | 16 (≈ 7.66 µg/mL) |  | 500 (≈ 239 µg/mL) | 500 (≈ 239 µg/mL) |  | 125 (≈ 59.8 µg/mL) | 500 (≈ 239 µg/mL) | > 500 |  | 125 (≈ 59.8 µg/mL) | 500 (≈ 239 µg/mL) | 500 (≈ 239 µg/mL) | 14.1 ± 0.2 | 15.1 ± 1.3
6 | CCOP(=S)(OCC)Oc1ccc(Cl)cc1C(=O)Nc1ccc(Br)cc1 [1n, O-{2-[(4-Bromophenyl)carbamoyl]-4-chlorophenyl} O,O-diethyl phosphorothioate] | 32 (≈ 15.3 µg/mL) | 32 (≈ 15.3 µg/mL) |  | 500 (≈ 239 µg/mL) | 500 (≈ 239 µg/mL) |  | 250 (≈ 120 µg/mL) | 500 (≈ 239 µg/mL) | 500 (≈ 239 µg/mL) |  | 250 (≈ 120 µg/mL) | 500 (≈ 239 µg/mL) | 500 (≈ 239 µg/mL) | 9.32 ± 0.06 | 15.1 ± 0.1
7 | NNC(=O)c1ccncc1 [INH, isoniazid, reference compound] | 0.5 to 1 (≈ 0.0686 to 0.137 µg/mL) | 1 (≈ 0.137 µg/mL) |  | > 250 | > 250 |  | > 250 | > 250 | > 250 |  | 2 to 4 (≈ 0.274 to 0.549 µg/mL) | 4 (≈ 0.549 µg/mL) | 4 to 8 (≈ 0.549 to 1.1 µg/mL) |  | 
8 | Nc1ccc(C(=O)O)c(O)c1 [PAS, para-aminosalicylic acid, reference compound] | 62.5 (≈ 9.57 µg/mL) | 62.5 (≈ 9.57 µg/mL) |  | 32 (≈ 4.9 µg/mL) | 125 (≈ 19.1 µg/mL) |  | 125 (≈ 19.1 µg/mL) | 1000 (≈ 153 µg/mL) | > 1000 |  | 32 (≈ 4.9 µg/mL) | 125 (≈ 19.1 µg/mL) | 500 (≈ 76.6 µg/mL) |  | 
